Results as given in patent US20250283871A1, “COMPOSITIONS AND METHODS FOR MODULATING THE INTERACTION BETWEEN SS18-SSX FUSION ONCOPROTEIN AND NUCLEOSOMES” (Dana-Farber Cancer Institute, Inc., priority 2020, published 2025).

Columns and labels:
mononucleosomes = mononucleosomes (Homo sapiens, UniProt O60814+P04908); assay: Peptide competition experiments; assay type: binding; settings: SSX 34aa versus SMARCB1 aa351-385
[1] = test system: acidic patch mutant nucleosomes (D90N, E92K, and E113K); assay: GST-SSX pull down with acidic patch mutant nucleosomes; assay type: binding; settings: H2A D90N, H3 immunoblot
Procedure: (§1) The flow through was removed, the immobilized bait was incubated with 1-2 μg of purified mammalian mono-nucleosomes from HEK293T cells, recombinant mono-nucleosomes (EpiCypher, 16-0006), recombinant H2AK119Ub mono-nucleosomes (EpiCypher, 16-0020) or recombinant protein for 3 hours at 4° C., and the beads were washed 3× with EB150 buffer and then eluted in 2×LDS with 200 mM DTT with heating at 95° C. for 5 minutes. The pull downs were then visualized by immunoblot analysis or colloidal blue staining.

[2] = test system: recombinant H2AK119Ub mono-nucleosomes; assay: Pull downs with WT or H2A K119Ub nucleosomes; assay type: binding
Procedure: as §1

[3] = test system: mammalian mononucleosomes from HEK293T cells; assay: Protein and peptide pull downs with mammalian mononucleosomes; assay type: binding, human; settings: for nucleosome binding in pull-down: mammalian mononucleosomes
Procedure: as §1
Mammalian mononucleosomes were purified from HEK293T cells similar to as previously described (Mashtalir et al. (2014) Mol. Cell 54:392-406). Cells were scraped from plates, washed with cold PBS, and centrifuged at 5,000 rpm for 5 min at 4° C. Pellets were resuspended in hypotonic buffer (EBO: 50 mM Tris HCl, pH 7.5, 1 mM EDTA, 1 mM MgCl2, 0.1% NP40 supplemented with 1 mM DTT, 1 mM PMSF, and protease inhibitor cocktail (Roche, C756U27) and incubated for 5 min on ice. The suspension was centrifuged at 5,000 rpm for 5 min at 4° C., and pellets were resuspended in 5 volumes of EB420 (EBO: 50 mM Tris HCl, pH 7.5, 420 mM NaCl, 1 mM MgCl2, 0.1% NP40 with supplemented with 1 mM DTT and 1 mM PMSF containing protease inhibitor cocktail (Roche, C756U27). Homogenate incubated on rotator for 1 hour at 4° C. The supernatant was then centrifuged at 20,000 rpm (30,000×g) for 1 hour at 4° C. using a SW32Ti rotor. Supernatant was then discarded and chromatin pellet was washed in MNAse buffer (20 mM Tris-HCl pH 7.5, 100 mM KCl, 2 mM MgCl2, 1 mM CaCl2, […] sucrose, 0.1% NP-40, and protease inhibitor cocktail) three times. Following MNase treatment (3 U/mL for 30 min at room temperature, Sigma-Aldrich), the reaction was quenched with 5 mM of EGTA and 5 mM of EDTA. The samples were then centrifuged at 20,000×g for 1 hour at 4° C. to obtain the soluble chromatin fraction. Soluble chromatin fraction was loaded onto 10-30% glycerol gradient (Mashtalir et al. (2014) Mol. Cell 54:392-406) and fractions containing mononucleosomes were isolated and concentrated using centrifugal filter (Amicon, EMD Millipore).

[4] = test system: WT, H2AUb or H2BUb nucleosomes; assay: AlphaLisa binding assay with biotinylated nucleosomes; settings: 10 nM biotinylated nucleosomes
nucleosome acidic patch = assay: Detection of nucleosome acidic patch interactions by photocrosslinking; assay type: binding; settings: diazirine probes in nucleosome acidic patch
Procedure: Briefly, diazirine-containing recombinant nucleosomes (0.5 uM) were incubated with biotinylated SSX peptides (12.5 uM) in binding buffer (20 mM HEPES, pH 7.9, 4 mM Tris, pH 7.5, 150 mM KCl, 10 mM MgCl2, 10% glycerol, and 0.02% (v/v) IGEPAL CA-630) at 30° C. for 30 mins, and cooled on ice for 5 mins. The reaction mixtures were then irradiated at 365 nm for 10 minutes. Reactions were then analyzed by western blotting employing IRDye® 800CW streptavidin on a LI-COR Odyssey® Infrared Imager. Additional details are found in Dao et al. (2019) Nat.

IMR90 fibroblasts = assay: Peptide hybridization assay; assay type: cell-based; settings: methanol-fixed IMR90 fibroblasts, co-stain H2A K119Ub
Procedure: IMR90 fibroblasts were grown on coverslips, washed with PBS and fixed using 100% ice-cold methanol for 3 minutes. Coverslips were then washed with IF wash buffer (PBS 0.1% NP40 1 mM Sodium azide) 3 times. Selected groups were treated with 200 ng/ml of recombinant USP2 catalytic domain (Boston biochem) for 1 hour. Coverslips were then washed 3 times with IF wash buffer and incubated with 2 μM of biotinylated peptides. Coverslips were subsequently washed 3 times with IF wash buffer and fixed in 3% PFA-PBS for 20 minutes. The rest of the procedure followed accordingly to standard IF protocol. In brief, following incubation with primary antibodies, the Anti-rabit Alexa Fluor® 594 and Streptavidin Alexa Fluor® 488 (Life Technologies) secondary antibodies/reagent were used for visualization of primary antibodies or biotinylated peptides. Staining with 4′,6-diamidino-2-phenylindole (DAPI) was used to visualize nuclei. Images were acquired using Zeiss Axio Imager Z2 microscope and images were processed using ImageJ program (NIH).

| Substance | reciprocal competition for nucleosome acidic patch binding (mononucleosomes) | binding to acidic patch-mutant nucleosomes [1] | affinity to H2A K119Ub-decorated nucleosomes, pulldown ([2]; H3 immunoblot) | binding across differentially-marked recombinant and mammalian nucleosomes ([2]; screen of modified mononucleosomes) | nucleosome binding in pull-down [3] | binding to mammalian versus recombinant, unmodified nucleosomes ([3]; pull-down) | affinity to H2A K119Ub-decorated nucleosomes, AlphaLisa [4] | histone-SSX crosslinks across the acidic patch (nucleosome acidic patch) | labeling of Barr bodies by biotinylated peptide (IMR90 fibroblasts) |
| --- | --- | --- | --- | --- | --- | --- | --- | --- | --- |
| SMARCB1 C-term alpha helix: peptide of the SMARCB1 C-terminal alpha helical domain, aa 351-385 | unable to outcompete SSX from binding the nucleosomes | – | – | – | – | – | – | – | – |
| GST-SSX 78aa: GST-tagged recombinant C-terminal 78 residues of SSX1 (aa 111-188) | – | near complete loss of SSX binding | significantly higher affinity to H2A K119Ub-decorated nucleosomes relative to unmodified nucleosomes or H2B K120Ub nucleosomes | preferentially bound to H2A K119Ub and mammalian nucleosomes over unmodified nucleosomes or nucleosomes with other histone marks | sufficient for its nucleosomal interactions | stronger than binding to recombinant, unmodified nucleosomes | significantly higher affinity to H2A K119Ub-decorated nucleosomes relative to unmodified nucleosomes or H2B K120Ub nucleosomes | – | – |
| SSX aa155-188: N-terminally biotinylated peptide of the conserved 34aa region of SSX | – | – | – | – | sufficient for SSX nucleosome binding | – | – | most prominently at positions H2A E56 and H2B E113 | Clear labeling of Barr bodies |
